Measured values from patent US11434220B2, “Use of physiological cooling active ingredients, and compositions comprising such active ingredients” (BASF SE, priority 2017, dated 2022).
pEC50: −log10 of the molar value.

How the values were obtained:
[1] = target: T1, human TRPM8 receptor (Homo sapiens, UniProt Q7Z2W7); test: Assay for TRPM8 modulators: Ca2+ fluorescence (Fluo-4) in HEK293-TRPM8 test cells; format: cell-based; settings: HEK293 cells stably transfected with human TRPM8, agonism, triplicates, 0.1-200 μM; read-out: Activity In vitro assay (EC50)
T1 construct: expressed in transfected cells
Description: The test cell system produced, with human TRPM8 DNA, was a stably transfected HEK293 cell line. Preference is given here to HEK293 which, via the plasmid introduced, offers the option of induction of TRPM8 expression by means of tetracycline.
The agonism or antagonism of the receptor can be quantified by means of a Ca^2+-sensitive dye (e.g. FURA, Fluo-4 etc.). Agonists on their own result in an increase in the Ca^2+ signal; antagonists in the presence of menthol, for example, result in a reduction in the Ca^2+ signal (in each case detected by means of the Fluo-4 dye which is caused to have different fluorescence properties by Ca^2+).
First of all, in a manner known per se, a fresh culture of transformed HEK cells is produced in cell culture bottles. The HEK293-TRPM8 test cells are detached from the cell culture bottles by means of trypsin and 40 000 cells/well are sown with 100 μl of medium in 96-hole plates (Greiner #655948 poly-D-lysine-coated). For induction of the TRPM8 receptor, tetracycline is added to the growth medium (DMEM/HG, 10% FCS tetracycline-free, 4 mM L-glutamine, 15 μg/mL blasticidin, 100 μg/mL hygromycin B, 1 μg/mL tetracycline). The next day, the cells are laden with Fluo-4AM dye and the test is conducted.
The test substances are used in the assay in triplicates in concentrations of 0.1-200 μM. Normally, the compounds are kept in DMSO solutions and diluted down for the assay to a maximum DMSO concentration of 2%.

[2] = test system: trained panelists; test: Sensory assessment: cooling intensity of inventive amides in 5% sugar solution compared to FEMA 4809; format: in vivo, human; settings: scale 1 (very weak) to 9 (very strong), n=10 to 11
Method: […] What were assessed here were initial cooling intensity, overall cooling intensity and long-lasting action on a scale from 1 (very weak) to 9 (very strong).

T1 sequence (Q7Z2W7 whole entry): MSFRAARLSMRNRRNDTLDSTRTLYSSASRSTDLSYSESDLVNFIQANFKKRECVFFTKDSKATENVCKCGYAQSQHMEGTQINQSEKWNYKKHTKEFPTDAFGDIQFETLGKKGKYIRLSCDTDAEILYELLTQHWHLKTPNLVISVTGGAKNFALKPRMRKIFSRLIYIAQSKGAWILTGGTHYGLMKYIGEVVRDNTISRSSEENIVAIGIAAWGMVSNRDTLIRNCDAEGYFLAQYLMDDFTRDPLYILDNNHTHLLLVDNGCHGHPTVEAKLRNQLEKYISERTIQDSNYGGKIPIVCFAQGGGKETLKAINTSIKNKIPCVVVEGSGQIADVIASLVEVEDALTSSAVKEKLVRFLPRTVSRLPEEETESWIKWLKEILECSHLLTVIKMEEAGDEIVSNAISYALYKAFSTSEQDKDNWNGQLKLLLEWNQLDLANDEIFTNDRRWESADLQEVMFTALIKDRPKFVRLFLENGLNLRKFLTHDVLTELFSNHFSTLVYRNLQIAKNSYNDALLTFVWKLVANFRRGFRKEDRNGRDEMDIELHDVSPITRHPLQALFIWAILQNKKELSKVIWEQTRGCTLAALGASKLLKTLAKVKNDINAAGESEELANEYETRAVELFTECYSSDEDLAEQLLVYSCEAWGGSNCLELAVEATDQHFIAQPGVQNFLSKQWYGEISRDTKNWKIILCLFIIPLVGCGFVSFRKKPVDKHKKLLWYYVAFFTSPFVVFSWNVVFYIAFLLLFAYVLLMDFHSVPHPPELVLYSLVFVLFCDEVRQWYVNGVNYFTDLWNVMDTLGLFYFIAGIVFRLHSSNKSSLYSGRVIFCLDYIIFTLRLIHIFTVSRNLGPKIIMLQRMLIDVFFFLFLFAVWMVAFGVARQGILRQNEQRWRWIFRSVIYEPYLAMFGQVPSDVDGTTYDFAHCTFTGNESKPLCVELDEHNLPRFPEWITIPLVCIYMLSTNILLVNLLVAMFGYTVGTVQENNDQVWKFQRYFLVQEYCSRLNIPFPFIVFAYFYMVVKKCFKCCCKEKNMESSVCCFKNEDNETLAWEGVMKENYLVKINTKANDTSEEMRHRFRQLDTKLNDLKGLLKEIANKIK

| pEC50 [1] | SMILES | Initial cooling effect ([2]; 2 ppm in 5% sugar solution) | Long-lasting action ([2]; 2 ppm in 5% sugar solution) | Overall cooling intensity ([2]; 2 ppm in 5% sugar solution) | Initial cooling effect ([2]; 20 ppm in 5% sugar solution) | Long-lasting action ([2]; 20 ppm in 5% sugar solution) | Overall cooling intensity ([2]; 20 ppm in 5% sugar solution) |
| --- | --- | --- | --- | --- | --- | --- | --- |
| 4.60 | O=C(/C=C/c1ccc2c(c1)OCO2)N(c1ccccc1)C1CCOC1 (centres unmarked) [(E)-3-(1,3-benzodioxol-5-yl)-N-phenyl-N-tetrahydrofuran-3-yl-prop-2-enamide] | 4.1 | 6.9 | 6.1 | 5.8 | 7.9 | 7.8 |
| 4.60 | CSCCN(C(=O)COc1ccc(C)cc1)c1ccccc1 [2-(4-methylphenoxy)-N-(2-methylsulfanylethyl)-N-phenyl-acetamide] |  |  |  | 2.2 | 2.8 | 2.8 |
| 4.60 | Cc1ccc(/C=C/C(=O)N(c2ccccn2)C2CCSC2)cc1 (centres unmarked) [(E)-3-(p-tolyl)-N-(2-pyridyl)-N-tetrahydrothiophen-3-yl-prop-2-enamide] |  |  |  | 5.3 | 7.4 | 7.0 |
| 4.60 | COc1ccc(/C=C/C(=O)N(c2ccccn2)C2CCSC2)cc1 (centres unmarked) [(E)-3-(4-methoxyphenyl)-N-(2-pyridyl)-N-tetrahydrothiophen-3-yl-prop-2-enamide] |  |  |  | 4.1 | 5.9 | 5.6 |
| 5.00 | Cc1ccc(/C=C/C(=O)N(CC2CCCO2)c2cc[nH]n2)cc1 (centres unmarked) [(E)-3-(p-tolyl)-N-(1H-pyrazol-3-yl)-N-(tetrahydrofuran-2-ylmethyl)prop-2-enamide] |  |  |  |  |  |  |
| 4.52 | COc1ccc(OCC(=O)N(CCSC)c2ccccc2)cc1 [2-(4-methoxyphenoxy)-N-(2-methylsulfanylethyl)-N-phenyl-acetamide] |  |  |  |  |  |  |
| 5.30 | Cc1ccc(/C=C/C(=O)N(CC2CCCO2)c2ccccc2)cc1 (centres unmarked) [(E)-N-phenyl-3-(p-tolyl)-N-(tetrahydrofuran-2-ylmethyl)prop-2-enamide] |  |  |  |  |  |  |
| 5.30 | O=C(/C=C/c1ccc2c(c1)OCO2)N(CC1CCCO1)c1ccccc1 (centres unmarked) [(E)-3-(1,3-benzodioxol-5-yl)-N-phenyl-N-(tetrahydrofuran-2-ylmethyl)prop-2-enamide] |  |  |  | 3.1 | 5.3 | 5.0 |

The remaining lines, values behind:

| SMILES | pEC50 [1] | Initial cooling effect ([2]; 2 ppm in 5% sugar solution) | Long-lasting action ([2]; 2 ppm in 5% sugar solution) | Overall cooling intensity ([2]; 2 ppm in 5% sugar solution) | Initial cooling effect ([2]; 20 ppm in 5% sugar solution) | Long-lasting action ([2]; 20 ppm in 5% sugar solution) | Overall cooling intensity ([2]; 20 ppm in 5% sugar solution) |
| --- | --- | --- | --- | --- | --- | --- | --- |
| CCN(CCSC)C(=O)/C=C/c1ccc2c(c1)OCO2 [(E)-3-(1,3-benzodioxol-5-yl)-N-ethyl-N-(2-methylsulfanylethyl)prop-2-enamide] | 4.82 |  |  |  | 3.8 | 4.7 | 5 |
| O=C(/C=C/c1ccc2c(c1)OCO2)N(c1ccccn1)C1CCSC1 (centres unmarked) [(E)-3-(1,3-benzodioxol-5-yl)-N-(2-pyridyl)-N-tetrahydrothiophen-3-yl-prop-2-enamide] | 5.22 |  |  |  | 6.6 | 7.9 | 8.3 |
| O=C(/C=C/c1ccccc1)N(c1ccccn1)C1CCSC1 (centres unmarked) [(E)-3-phenyl-N-(2-pyridyl)-N-tetrahydrothiophen-3-yl-prop-2-enamide] | 4.52 |  |  |  | 5.3 | 7.8 | 7.8 |
| CCN(CCCSC)C(=O)/C=C/c1ccc2c(c1)OCO2 [(E)-3-(1,3-benzodioxol-5-yl)-N-ethyl-N-(3-methylsulfanylpropyl)prop-2-enamide] | 4.52 |  |  |  |  |  |  |
| O=C(/C=C/c1ccc2c(c1)OCO2)N(CC1CCCS1)c1cc[nH]n1 (centres unmarked) [(E)-3-(1,3-benzodioxol-5-yl)-N-(1H-pyrazol-3-yl)-N-(tetrahydrothiophen-2-ylmethyl)prop-2-enamide] | 5.30 |  |  |  |  |  |  |
| COc1ccc(/C=C/C(=O)N(CC2CCCO2)c2cc[nH]n2)cc1 (centres unmarked) [(E)-3-(4-methoxyphenyl)-N-(1H-pyrazol-3-yl)-N-(tetrahydrofuran-2-ylmethyl)prop-2-enamide] | 4.60 |  |  |  |  |  |  |
